Measured values from patent US12479847B2 (DANA-FARBER CANCER INSTITUTE, INC., priority 2019, dated 2025).

Key:
Test in all cases: KINOMEscan (ScanMAX) kinase profiling
Format in all cases: binding
panel of 468 kinases [1] = biological target: T1, panel of 468 kinases (Homo sapiens, UniProt O15146); conditions: MUSK; 1 μM; read-out: % control
T1 construct: purchased KINOMEscan (ScanMAX) service
T1 sequence (O15146 24-869): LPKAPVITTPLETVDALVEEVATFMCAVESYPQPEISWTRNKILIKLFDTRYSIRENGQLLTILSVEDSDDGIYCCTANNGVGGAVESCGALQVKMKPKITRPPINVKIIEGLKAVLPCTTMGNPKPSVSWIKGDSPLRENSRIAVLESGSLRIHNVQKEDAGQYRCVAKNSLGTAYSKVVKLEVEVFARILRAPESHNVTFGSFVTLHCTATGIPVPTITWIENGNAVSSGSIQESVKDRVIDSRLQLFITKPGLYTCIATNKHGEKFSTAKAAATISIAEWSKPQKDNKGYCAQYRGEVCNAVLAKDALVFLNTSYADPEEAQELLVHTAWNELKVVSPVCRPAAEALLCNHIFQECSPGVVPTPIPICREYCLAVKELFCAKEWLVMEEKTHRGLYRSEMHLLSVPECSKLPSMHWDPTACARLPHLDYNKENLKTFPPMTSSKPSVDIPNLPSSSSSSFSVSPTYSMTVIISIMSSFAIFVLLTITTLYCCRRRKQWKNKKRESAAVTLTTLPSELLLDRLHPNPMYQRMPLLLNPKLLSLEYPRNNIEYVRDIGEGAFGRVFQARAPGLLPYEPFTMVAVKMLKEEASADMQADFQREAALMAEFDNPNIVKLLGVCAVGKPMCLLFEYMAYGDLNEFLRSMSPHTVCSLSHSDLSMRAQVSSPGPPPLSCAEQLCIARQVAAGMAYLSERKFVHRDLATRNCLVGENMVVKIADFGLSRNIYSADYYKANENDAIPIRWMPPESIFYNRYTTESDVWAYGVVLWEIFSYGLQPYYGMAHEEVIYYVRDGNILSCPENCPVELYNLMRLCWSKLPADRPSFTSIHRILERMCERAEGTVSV

panel of 468 kinases [2] = biological target: T2, panel of 468 kinases (Homo sapiens, UniProt P42345); conditions: MTOR; 1 μM; read-out: % control
T2 construct: purchased KINOMEscan (ScanMAX) service

panel of 468 kinases [3] = biological target: T3, panel of 468 kinases (Homo sapiens, UniProt O15111); conditions: IKK-alpha; 1 μM; read-out: % control
T3 construct: purchased KINOMEscan (ScanMAX) service
T3 sequence (O15111 1-745): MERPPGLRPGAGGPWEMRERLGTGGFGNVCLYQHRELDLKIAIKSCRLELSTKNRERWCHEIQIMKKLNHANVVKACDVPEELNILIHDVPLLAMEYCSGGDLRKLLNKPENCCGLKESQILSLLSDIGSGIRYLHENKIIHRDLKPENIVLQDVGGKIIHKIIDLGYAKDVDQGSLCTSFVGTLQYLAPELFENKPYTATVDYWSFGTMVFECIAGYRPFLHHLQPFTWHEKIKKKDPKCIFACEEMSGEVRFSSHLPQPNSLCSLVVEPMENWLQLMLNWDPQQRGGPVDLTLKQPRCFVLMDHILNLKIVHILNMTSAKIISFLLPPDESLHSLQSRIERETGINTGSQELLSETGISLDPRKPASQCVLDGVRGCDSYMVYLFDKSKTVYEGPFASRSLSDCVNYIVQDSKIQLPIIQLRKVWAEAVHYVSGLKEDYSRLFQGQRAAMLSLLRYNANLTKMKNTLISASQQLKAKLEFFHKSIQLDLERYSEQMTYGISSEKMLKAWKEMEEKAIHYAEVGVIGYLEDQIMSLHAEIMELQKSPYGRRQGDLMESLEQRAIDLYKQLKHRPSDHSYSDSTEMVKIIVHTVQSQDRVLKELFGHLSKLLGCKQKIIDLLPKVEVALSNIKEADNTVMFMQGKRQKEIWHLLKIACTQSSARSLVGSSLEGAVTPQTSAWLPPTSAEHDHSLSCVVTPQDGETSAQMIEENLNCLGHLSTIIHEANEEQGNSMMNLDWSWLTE

panel of 468 kinases [4] = biological target: T4, panel of 468 kinases (Homo sapiens, UniProt Q13976); conditions: PRKG1; 1 μM; read-out: % control
T4 construct: purchased KINOMEscan (ScanMAX) service
T4 sequence (Q13976 1-671): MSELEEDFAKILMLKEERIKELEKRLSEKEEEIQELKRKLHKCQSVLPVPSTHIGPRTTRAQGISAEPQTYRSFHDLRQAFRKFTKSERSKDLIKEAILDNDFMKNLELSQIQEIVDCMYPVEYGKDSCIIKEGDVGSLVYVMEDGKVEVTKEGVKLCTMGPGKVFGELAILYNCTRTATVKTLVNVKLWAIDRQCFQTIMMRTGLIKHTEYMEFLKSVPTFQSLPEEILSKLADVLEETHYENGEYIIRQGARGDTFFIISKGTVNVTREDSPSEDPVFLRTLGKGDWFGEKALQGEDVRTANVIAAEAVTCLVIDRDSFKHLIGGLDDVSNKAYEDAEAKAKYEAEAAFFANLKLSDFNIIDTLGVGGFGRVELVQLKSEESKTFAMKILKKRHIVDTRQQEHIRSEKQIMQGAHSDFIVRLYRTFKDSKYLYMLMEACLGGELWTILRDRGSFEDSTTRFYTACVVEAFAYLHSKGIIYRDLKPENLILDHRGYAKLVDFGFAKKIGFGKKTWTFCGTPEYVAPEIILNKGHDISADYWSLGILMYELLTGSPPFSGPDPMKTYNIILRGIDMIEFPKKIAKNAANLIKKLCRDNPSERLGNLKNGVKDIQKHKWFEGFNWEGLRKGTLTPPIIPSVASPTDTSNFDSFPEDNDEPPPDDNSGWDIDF

panel of 468 kinases [5] = biological target: T5, panel of 468 kinases (Homo sapiens, UniProt P49336); conditions: CDK8; 1 μM; read-out: % control
T5 construct: purchased KINOMEscan (ScanMAX) service
T5 sequence (P49336 whole entry): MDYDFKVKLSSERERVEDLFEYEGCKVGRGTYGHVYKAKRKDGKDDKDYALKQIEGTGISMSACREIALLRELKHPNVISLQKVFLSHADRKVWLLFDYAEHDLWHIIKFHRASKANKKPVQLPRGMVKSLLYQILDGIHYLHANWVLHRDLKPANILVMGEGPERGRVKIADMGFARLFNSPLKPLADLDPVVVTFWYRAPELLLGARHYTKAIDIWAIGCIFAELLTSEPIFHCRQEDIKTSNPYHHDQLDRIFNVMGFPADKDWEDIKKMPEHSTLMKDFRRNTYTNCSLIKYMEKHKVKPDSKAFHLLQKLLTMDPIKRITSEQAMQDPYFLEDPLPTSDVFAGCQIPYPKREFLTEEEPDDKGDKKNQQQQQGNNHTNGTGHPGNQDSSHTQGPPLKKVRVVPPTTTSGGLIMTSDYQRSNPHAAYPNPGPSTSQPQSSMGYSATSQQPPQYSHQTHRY

SMILES | remaining binding at 1 µM (panel of 468 kinases [1]) [%] | remaining binding at 1 µM (panel of 468 kinases [2]) [%] | remaining binding at 1 µM (panel of 468 kinases [3]) [%] | remaining binding at 1 µM (panel of 468 kinases [4]) [%] | remaining binding at 1 µM (panel of 468 kinases [5]) [%]
CNc1nc(Nc2ccc(S(=O)(=O)N3CCC(N4CCOCC4)CC3)cc2OC)nc2[nH]cc(Cl)c12 [Compound 12, 5-chloro-N2-(2-methoxy-4-((4-morpholinopiperidin-1-yl)sulfonyl)phenyl)-N4-methyl-7H-pyrrolo[2,3-d]pyrimidine-2,4-diamine] | 98 | 67 | 76 | 100 | 100
CNc1nc(Nc2ccc(P3(=O)CCN(C4CCOCC4)CC3)cc2OC)nc2[nH]cc(Cl)c12 [Compound 77, 4-(4-((5-chloro-4-(methylamino)-7H-pyrrolo[2,3-d]pyrimidin-2-yl)amino)-3-methoxyphenyl)-1-(tetrahydro-2H-pyran-4-yl)-1,4-azaphosphinane 4-oxide] | 72 | 84 | 81 | 100 | 91
CNc1nc(Nc2ccc(C(=O)N3CCC(N4CCOCC4)CC3)c3c2OCO3)nc2[nH]cc(Cl)c12 [Compound 75, (7-((5-chloro-4-(methylamino)-7H-pyrrolo[2,3-d]pyrimidin-2-yl)amino)benzo[d][1,3]dioxol-4-yl)(4-morpholinopiperidin-1-yl)methanone] | 21 | 79 | 65 | 100 | 100
